Experimental data from patent US6914045B2, “Glycopeptide antibiotics” (Wyeth Holdings Corporation, priority 2001, dated 2005).

Experiments:
Assay in all cases: in vitro antibacterial evaluation, MIC by broth dilution
Type in all cases: cell-based
Escherichia coli = settings: 18 hours at 35° C.
Enterococcus sp. = settings: broth dilution, 18 hours at 35° C.
Procedure, shortened: (§1)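 Test organisms, which included recent clinical isolates resistant to methicillin, penicillin and/or vancomycin, were inoculated at 5×10^5 CFU/mL into Muller-Hinton II […] containing antibiotic at 64-0.06 μg/mL. Minimum inhibitory concentrations were then read as the lowest level inhibiting growth.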

Staphylococcus sp. = settings: broth dilution, 18 hours at 35° C.; for MIC Staphylococcus aureus (GC 1131): strain GC 1131; for MIC Staphylococcus aureus (ATCC 29213): strain ATCC 29213; for MIC Staphylococcus aureus (GC 3051): strain GC 3051; for MIC Staphylococcus aureus (GC 3053): strain GC 3053; for MIC Staphylococcus aureus (GC 4541): strain GC 4541; for MIC Staphylococcus aureus (GC 4542): strain GC 4542; for MIC Staphylococcus aureus-SMITH (GC 4543): strain GC 4543; for MIC Staphylococcus aureus (GC 4544): strain GC 4544; for MIC Staphylococcus aureus (GC 4545): strain GC 4545; for MIC Staphylococcus haemolyticus (GC 4546): strain GC 4546; for MIC Coagulase Negative Staphylococcus (GC 4547): strain GC 4547; for MIC Coagulase Negative Staphylococcus (GC 4548): strain GC 4548; for MIC Coagulase Negative Staphylococcus (GC 4549): strain GC 4549; for MIC Coagulase Negative Staphylococcus (GC 4551): strain GC 4551; for MIC Coagulase Negative Staphylococcus (GC 6257): strain GC 6257
Procedure, shortened: as §1

Streptococcus sp. = settings: broth dilution, 18 hours at 35° C.
Procedure, shortened: as §1

CC(c1ccccc1)C1NC(=O)CNC(=O)C(CO)NC(=O)C(C(O)C2CNC(=N)N2C2OC(CO)C(O)C(O)C2O)NC(=O)C(C(O)C2CNC(=N)N2)NC(=O)C(Cc2ccc(OC3OC(CO)C(OC4OC5COC6(CCCCC6)OC5C(O)C4O)C(O)C3O)cc2)NC1=O (stereo not shown) [Example 203]
4 µg/mL: MIC Enterococcus faecalis (GC 2242) (Enterococcus sp.) | MIC Enterococcus faecium (GC 4556) (Enterococcus sp.) | MIC Enterococcus faecium (GC 4557) (Enterococcus sp.) | MIC Enterococcus faecalis (GC 2242) (Enterococcus sp.; inoculum 5×10^5 CFU/mL, strain GC 2242) | MIC Enterococcus faecium (GC 4556) (Enterococcus sp.; inoculum 5×10^5 CFU/mL, strain GC 4556) | MIC Enterococcus faecium (GC 4557) (Enterococcus sp.; inoculum 5×10^5 CFU/mL, strain GC 4557) | MIC Staphylococcus aureus (GC 3053) (Staphylococcus sp.)
64 µg/mL: MIC Escherichia coli (ATCC 25922) (Escherichia coli)
0.5 µg/mL: MIC Streptococcus pneumoniae (ATCC 6301) (Streptococcus sp.) | MIC Streptococcus pyogenes (GC 4563) (Streptococcus sp.) | MIC Streptococcus pneumoniae (ATCC 6301) (Streptococcus sp.; inoculum 5×10^5 CFU/mL, strain ATCC 6301) | MIC Streptococcus pyogenes (GC 4563) (Streptococcus sp.; inoculum 5×10^5 CFU/mL, strain GC 4563)
0.25 µg/mL: MIC Streptococcus pneumoniae (GC 4565) (Streptococcus sp.) | MIC Streptococcus pneumoniae (GC 4565) (Streptococcus sp.; inoculum 5×10^5 CFU/mL, strain GC 4565)
2 µg/mL: MIC Escherichia coli (GC 4560) (Escherichia coli) | MIC Staphylococcus aureus (GC 1131) (Staphylococcus sp.; inoculum 5×10^5 CFU/mL) | MIC Staphylococcus aureus (GC 1131) (Staphylococcus sp.) | MIC Staphylococcus aureus (GC 3051) (Staphylococcus sp.) | MIC Staphylococcus aureus-SMITH (GC 4543) (Staphylococcus sp.) | MIC Staphylococcus aureus (GC 4544) (Staphylococcus sp.) | MIC Coagulase Negative Staphylococcus (GC 4547) (Staphylococcus sp.) | MIC Coagulase Negative Staphylococcus (GC 4551) (Staphylococcus sp.)
0.12 µg/mL: MIC Streptococcus pneumoniae (GC 1894) (Streptococcus sp.) | MIC Streptococcus pneumoniae (GC 1894) (Streptococcus sp.; inoculum 5×10^5 CFU/mL, strain GC 1894)
8 µg/mL: MIC Enterococcus avium (GC 4558) (Enterococcus sp.) | MIC Enterococcus faecalis (ATCC 29212) (Enterococcus sp.) | MIC Enterococcus faecalis (GC 2691) (Enterococcus sp.) | MIC Enterococcus faecalis (GC 3059) (Enterococcus sp.) | MIC Enterococcus faecalis (GC 4552) (Enterococcus sp.) | MIC Enterococcus faecalis (GC 4553) (Enterococcus sp.) | MIC Enterococcus faecalis (GC 4554) (Enterococcus sp.) | MIC Enterococcus faecalis (GC 6189) (Enterococcus sp.) | MIC Enterococcus faecium (GC 2243) (Enterococcus sp.) | MIC Enterococcus faecalis (ATCC 29212) (Enterococcus sp.; inoculum 5×10^5 CFU/mL, strain ATCC 29212) | MIC Enterococcus faecium (GC 2243) (Enterococcus sp.; inoculum 5×10^5 CFU/mL, strain GC 2243) | MIC Enterococcus faecalis (GC 2691) (Enterococcus sp.; inoculum 5×10^5 CFU/mL, strain GC 2691) | MIC Enterococcus faecalis (GC 3059) (Enterococcus sp.; inoculum 5×10^5 CFU/mL, strain GC 3059) | MIC Enterococcus faecalis (GC 4552) (Enterococcus sp.; inoculum 5×10^5 CFU/mL, strain GC 4552) | MIC Enterococcus faecalis (GC 4553) (Enterococcus sp.; inoculum 5×10^5 CFU/mL, strain GC 4553) | MIC Enterococcus faecalis (GC 4554) (Enterococcus sp.; inoculum 5×10^5 CFU/mL, strain GC 4554) | MIC Enterococcus avium (GC 4558) (Enterococcus sp.; inoculum 5×10^5 CFU/mL, strain GC 4558) | MIC Enterococcus faecalis (GC 6189) (Enterococcus sp.; inoculum 5×10^5 CFU/mL, strain GC 6189)
32 µg/mL: MIC Escherichia coli (GC 4559) (Escherichia coli)
1 µg/mL: MIC Staphylococcus aureus (ATCC 29213) (Staphylococcus sp.) | MIC Staphylococcus aureus (GC 4541) (Staphylococcus sp.) | MIC Staphylococcus aureus (GC 4542) (Staphylococcus sp.) | MIC Staphylococcus aureus (GC 4545) (Staphylococcus sp.) | MIC Staphylococcus haemolyticus (GC 4546) (Staphylococcus sp.) | MIC Coagulase Negative Staphylococcus (GC 4548) (Staphylococcus sp.) | MIC Coagulase Negative Staphylococcus (GC 4549) (Staphylococcus sp.) | MIC Coagulase Negative Staphylococcus (GC 6257) (Staphylococcus sp.) | MIC Streptococcus agalactiae (GC 4564) (Streptococcus sp.) | MIC Streptococcus agalactiae (GC 4564) (Streptococcus sp.; inoculum 5×10^5 CFU/mL, strain GC 4564)

CC(c1ccccc1)C1NC(=O)CNC(=O)C(CO)NC(=O)C(C(O)C2CNC(=N)N2C2OC(CO)C(O)C(O)C2O)NC(=O)C(C(O)C2CNC(=N)N2)NC(=O)C(Cc2ccc(O)c(NC(=O)c3ccccc3)c2)NC1=O (stereo not drawn) [Example 17, Cyclo[glycyl-β-methylphenylalanyl-3-(benzamido)tyrosyl-3-(2-iminoimidazolidin-4-yl)seryl-3-(3-hexopyranosyl-2-iminoimidazolidin-4-yl)serylseryl]]
>64 µg/mL: MIC Enterococcus faecalis (ATCC 29212) (Enterococcus sp.; strain ATCC 29212) | MIC Enterococcus faecalis (GC 2242) (Enterococcus sp.; strain GC 2242) | MIC Enterococcus faecium (GC 2243) (Enterococcus sp.; strain GC 2243) | MIC Enterococcus faecalis (GC 2691) (Enterococcus sp.; strain GC 2691) | MIC Enterococcus faecalis (GC 3059) (Enterococcus sp.; strain GC 3059) | MIC Enterococcus faecalis (GC 4552) (Enterococcus sp.; strain GC 4552) | MIC Enterococcus faecalis (GC 4553) (Enterococcus sp.; strain GC 4553) | MIC Enterococcus faecalis (GC 4554) (Enterococcus sp.; strain GC 4554) | MIC Enterococcus faecalis (GC 6189) (Enterococcus sp.; strain GC 6189) | MIC Staphylococcus aureus (ATCC 29213) (Staphylococcus sp.) | MIC Staphylococcus aureus (GC 1131) (Staphylococcus sp.) | MIC Staphylococcus aureus (GC 3051) (Staphylococcus sp.) | MIC Staphylococcus aureus (GC 3053) (Staphylococcus sp.) | MIC Staphylococcus aureus (GC 4541) (Staphylococcus sp.) | MIC Staphylococcus aureus (GC 4542) (Staphylococcus sp.) | MIC Staphylococcus aureus-SMITH (GC 4543) (Staphylococcus sp.) | MIC Staphylococcus aureus (GC 4544) (Staphylococcus sp.) | MIC Staphylococcus aureus (GC 4545) (Staphylococcus sp.) | MIC Staphylococcus haemolyticus (GC 4546) (Staphylococcus sp.) | MIC Coagulase Negative Staphylococcus (GC 4548) (Staphylococcus sp.) | MIC Coagulase Negative Staphylococcus (GC 4551) (Staphylococcus sp.) | MIC Streptococcus pneumoniae (ATCC 6301) (Streptococcus sp.; strain ATCC 6301) | MIC Streptococcus pyogenes (GC 4563) (Streptococcus sp.; strain GC 4563) | MIC Streptococcus agalactiae (GC 4564) (Streptococcus sp.; strain GC 4564) | MIC Streptococcus pneumoniae (GC 4565) (Streptococcus sp.; strain GC 4565)
32 µg/mL: MIC Escherichia coli (GC 4559) (Escherichia coli; strain GC 4559, broth dilution) | MIC Coagulase Negative Staphylococcus (GC 4549) (Staphylococcus sp.)
64 µg/mL: MIC Escherichia coli (ATCC 25922) (Escherichia coli; strain ATCC 25922, broth dilution) | MIC Enterococcus faecium (GC 4556) (Enterococcus sp.; strain GC 4556) | MIC Enterococcus faecium (GC 4557) (Enterococcus sp.; strain GC 4557) | MIC Enterococcus avium (GC 4558) (Enterococcus sp.; strain GC 4558) | MIC Coagulase Negative Staphylococcus (GC 4547) (Staphylococcus sp.) | MIC Coagulase Negative Staphylococcus (GC 6257) (Staphylococcus sp.) | MIC Streptococcus pneumoniae (GC 1894) (Streptococcus sp.; strain GC 1894)
16 µg/mL: MIC Escherichia coli (GC 4560) (Escherichia coli; strain GC 4560, broth dilution)
